Assay results reported in article PMC4988501, “Pinpointing a Mechanistic Switch Between Ketoreduction and “Ene” Reduction in Short‐Chain Dehydrogenases/Reductases” (Angewandte Chemie (International Ed. in English), 2016).

What was measured:
Type in all cases: binding
[1] = biological target: T1, IPR (isopiperitenone reductase) (Mentha x piperita, UniProt Q6WAU1); assay: X-ray crystal structure; details: oxidised cofactor scavenged from expression host
T1 construct: recombinant; scavenged NADP+ from host cells; catalytic Glu238; construct details only in supplement

[2] = biological target: T2, MNMR ((−)‐menthone:(+)‐neomenthol reductase) (Mentha x piperita, UniProt Q06ZW2); assay: X-ray crystal structure, crystal soaking; details: crystals soaked with NADP+
T2 construct: recombinant; catalytic Tyr244; construct details only in supplement

[3] = biological target: T1, IPR (isopiperitenone reductase); assay: X-ray crystal structure of complex; details: non-substrate, bound in a non-active conformation; with NADP+

T1 sequence (Q6WAU1 whole entry): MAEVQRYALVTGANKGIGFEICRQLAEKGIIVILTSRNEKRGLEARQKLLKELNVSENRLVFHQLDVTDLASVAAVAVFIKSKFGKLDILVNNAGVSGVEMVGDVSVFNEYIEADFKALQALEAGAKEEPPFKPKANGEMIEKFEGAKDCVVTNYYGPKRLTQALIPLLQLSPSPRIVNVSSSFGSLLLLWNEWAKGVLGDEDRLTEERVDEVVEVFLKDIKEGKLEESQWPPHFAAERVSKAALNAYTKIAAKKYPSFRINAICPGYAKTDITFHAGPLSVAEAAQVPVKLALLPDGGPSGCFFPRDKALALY
T2 sequence (Q06ZW2 entry or part of it): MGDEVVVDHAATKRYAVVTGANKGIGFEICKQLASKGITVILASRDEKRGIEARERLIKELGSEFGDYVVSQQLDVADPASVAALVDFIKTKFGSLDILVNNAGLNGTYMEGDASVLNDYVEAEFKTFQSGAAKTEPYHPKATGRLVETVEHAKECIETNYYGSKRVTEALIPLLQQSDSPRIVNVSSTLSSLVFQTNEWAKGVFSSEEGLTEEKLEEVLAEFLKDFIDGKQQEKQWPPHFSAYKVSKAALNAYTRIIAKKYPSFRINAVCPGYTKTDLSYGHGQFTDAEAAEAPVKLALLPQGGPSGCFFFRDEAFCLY

SMILES	X-ray crystal structure [1]	X-ray crystal structure, crystal soaking [2]	X-ray crystal structure of complex [3]
NC(=O)c1ccc[n+]([C@@H]2O[C@H](COP(=O)(O)OP(=O)(O)OC[C@H]3O[C@@H](n4cnc5c(N)ncnc54)[C@H](OP(=O)(O)O)[C@@H]3O)[C@@H](O)[C@H]2O)c1 [NADP+]	presence of clear density in the F0−Fc map for NADP^+	A coenzyme‐bound MNMR structure was obtained by soaking crystals with NADP^+	–
CC1=C(C=O)C(C)(C)CCC1 [β‐cyclocitral]	–	–	The IPR–β‐cyclocitral co‐crystal structure shows the ligand binds in a non‐active conformation
